IC50 data for 14 compounds are collected here from patent US9527830B2 (Merck Sharp & Dohme Corp., priority 2011, dated 2016).

The term IC50 denotes the concentration needed to halve the response being measured. The low end stands for higher potency, the high end for lower potency.

The test addresses T1, hROMK1 (Kir1.1) (Homo sapiens, UniProt P48048).
T1 construct: expressed in transfected cells
T1 sequence (P48048 1-391): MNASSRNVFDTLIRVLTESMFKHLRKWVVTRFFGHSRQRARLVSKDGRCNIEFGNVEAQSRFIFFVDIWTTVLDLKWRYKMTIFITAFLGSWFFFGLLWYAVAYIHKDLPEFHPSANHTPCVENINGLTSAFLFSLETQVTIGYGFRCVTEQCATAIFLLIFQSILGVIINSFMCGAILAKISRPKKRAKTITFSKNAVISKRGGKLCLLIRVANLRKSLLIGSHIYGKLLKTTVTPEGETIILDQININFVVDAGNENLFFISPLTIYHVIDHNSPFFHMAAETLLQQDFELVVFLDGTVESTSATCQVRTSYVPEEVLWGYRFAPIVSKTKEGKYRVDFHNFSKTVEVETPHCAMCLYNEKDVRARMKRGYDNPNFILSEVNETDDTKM
Put plainly: ^86Rb^+ Efflux Assay. In kind it is cell-based. As to conditions: CHO-DHFR- cells stably expressing hROMK1; potency ranges. As to the method: Several assays may be used to measure functional inhibition of the ROMK channel by compounds of the instant invention. One primary assay that can be used is a functional ^86Rb^+ efflux assay that measures the ability of ROMK to permeate ^86Rb^+, in the absence or presence of test compound. Under control conditions, cells loaded with ^86Rb^+ and incubated in Rb^+-free medium display a time-dependent efflux of the isotope, the rate of which depends on number of functional channels. When cells are incubated in the presence of a channel inhibitor, efflux of ^86Rb^+ is prevented in a concentration-dependent manner, and IC50 values of inhibition by compounds can be accurately determined. This assay has been established with cell lines expressing either human, rat or dog ROMK channels, and can operate in 96- or 384-well format. Importantly, the human, rat, and dog ^86Rb^+ efflux assays can be carried out in the presence of up to 100% serum allowing, therefore, an accurate estimation of the effect of protein binding on the inhibitory activity of compounds of interest. Another ROMK functional assay makes use of the ability of thallium to permeate through open ROMK channels and increase the fluorescence of a dye previously loaded into the cells. Under control conditions, cells loaded with dye and exposed to thallium-containing medium display a time-dependent increase in fluorescence, the rate of which depends on number of functional channels. When cells are incubated in the presence of a channel inhibitor, the increase in fluorescence is attenuated in a concentration-dependent manner, and IC50 values of inhibition by compounds can be accurately determined. This assay has been established with cell lines expressing either human, or rat ROMK channels, and operates in 384-well format. Another assay for evaluation of the compounds of the instant invention and for evaluation of mechanism of action of compounds of Formula I relies on the measurement of the electrical current that is generated as potassium permeates through the channel. For these electrophysiological experiments, three different platforms, IonWorks, QPatch, or manual patch clamp, are used, depending on the experimental protocol under consideration. IonWorks operates in a 384-well format and allows accurate determination of IC50 values for inhibitors.
CHO-DHFR-cells stably expressing hROMK1 (Kir1.1) were grown at 37° C. in a 10% CO2 humidified incubator in Iscove's Modified Dulbecco's Medium (Gibco 12440) supplemented with HT Supplement, Penicillin/Streptomycin/Glutamine, G418 (500 μg/ml) and 10% FBS. Cells were seeded in Sterile and Tissue Culture Treated Packard CulturPlate White Opaque Microplates at a concentration of 5.0E5-7.0E5 cells/ml—PerkinElmer 6005680 (96-well); Corning 3707 (384 well) in complete media containing 1.5 μCi/ml Rubidium-86. Cells were incubated in 37° C.-10% CO2 incubator overnight. On the day of the experiment, the media was removed and cells washed with low K assay buffer. ^86Rb^+ efflux was initiated after addition of assay buffer±test compound followed by 35 min incubation at room temperature. ROMK-sensitive component of efflux was defined in the presence of 10 mM BaCl2. Assay buffer was removed and transferred to a plate and cells were solubilized in the presence of SDS. Radioactivity associated with assay and cell plate was determined.
• 1. Removed cell media and washed cells with low K assay buffer (126.9 mM NaCl, 4.6 mM KCl, 2 mM CaCl2, 1 mM MgCl2, 10 mM Hepes/NaOH; pH 7.4) • 200 μl for 96-well plate; 70 μl for 384-well plate • 2. Added assay buffer (121.5 mM NaCl, 10 mM KCl, 2 mM CaCl2, 1 mM MgCl2, 10 mM Hepes/NaOH; pH 7.4)±test compound to cells • 100 μl for 96-well plate; 50 μl for 384-well plate • 3. Incubated at ambient temperature (22-24° C.) for 35 min • 4.
The compound `Cc1c(/C=C/C2CCN(C(=O)Cc3ccc(-n4cnnn4)cc3)CC2)ccc2c1COC2=O` [Example 41, 4-Methyl-5-[(E)-2-(1-{[4-(1H-tetrazol-1-yl)phenyl]acetyl}piperidin-4-yl)ethenyl]-2-benzofuran-1(3H)-one] yielded an IC50 of no more than 200 nM.
`O=C1OCc2cc(/C=C/C3CCN(C(=O)Cc4ccc5c(c4)COC5=O)CC3)ccc21` [Example 47, 5-[(E)-2-{1-[(1-Oxo-1,3-dihydro-2-benzofuran-5-yl)acetyl]piperidin-4-}ethenyl]-2-benzofuran-1(3H)-one] yielded an IC50 of no more than 500 nM.
`N#Cc1cc(/C=C/C2CCN(C(=O)Cc3ccc4c(c3)COC4=O)CC2)ccc1F` [Example 48, 2-Fluoro-5-[(E)-2-{1-[(1-oxo-1,3-dihydro-2-benzofuran-5-yl)acetyl]piperidin-4-yl}ethenyl]benzonitrile] showed an IC50 of no more than 500 nM.
With `O=C1OCc2cc(CCC3CCN(C(=O)Cc4ccc5c(c4)COC5=O)CC3)ccc21` [Example 50, 5-(2-{1-[(1-Oxo-1,3-dihydro-2-benzofuran-5-yl)acetyl]piperidin-4-yl}ethyl)-2-benzofuran-1(3H)-one], the IC50 is no more than 500 nM.
In turn, `O=C1OCc2cc(SC3CCN(C(=O)Cc4ccc(-n5cnnn5)cc4)CC3)ccc21` [Example 51, 5-[(1-{[4-(1H-Tetrazol-1-yl)phenyl]acetyl}piperidin-4-yl)sulfanyl]-2-benzofuran-1(3H)-one] displayed an IC50 of no more than 500 nM.
As to `COc1cc(CC(=O)N2CCC(/C=C/c3ccc4c(c3)COC4=O)CC2)ccc1C#N` [Example 52, 2-Methoxy-4-(2-oxo-2-(4-[(E)-2-(1-oxo-1,3-dihydro-2-benzofuran-5-yl)ethenyl]piperidin-1-yl}ethyl]benzonitrile], the IC50 is no more than 500 nM.
As for `COc1cc(CC(=O)N2CCC(CCc3ccc4c(c3)COC4=O)CC2)ccc1C#N` [Example 53, 2-Methoxy-4-(2-oxo-2-(4-[2-(1-oxo-1,3-dihydro-2-benzofuran-5-yl)ethyl]piperidin-1-yl}ethyl]benzonitrile], the figure is no more than 500 nM; as for `O=C1OCc2cc(OCC3CCN(C(=O)Cc4ccc(-n5cnnn5)cc4)CC3)ccc21` [Example 55, 5-[(1-{[4-(1H-Tetrazol-1-yl)phenyl]acetyl}piperidin-4-yl)methoxy]-2-benzofuran-1(3H)-one], no more than 200 nM; as for `COc1cc(CC(=O)N2CCC(CCc3ccc4c(c3)COC4=O)CC2)c(F)cc1C#N` [Example 56, 5-Fluoro-2-methoxy-4-(2-oxo-2-{4-[2-(1-oxo-1,3-dihydro-2-benzofuran-5-yl)ethyl]piperidin-1-yl}ethyl)benzonitrile], no more than 500 nM.
Regarding `O=C1OCc2c1ccc(CCC1CCN(C(=O)Cc3ccc(-n4cnnn4)cc3)CC1)c2F` [Example 57, 4-Fluoro-5-[2-(1-{[4-(1H-tetrazol-1-yl)phenyl]acetyl}piperidin-4-yl)ethyl]-2-benzofuran-1(3H)-one], the IC50 is no more than 200 nM.
`O=C1OCc2c1ccc(CCC1CCN(C(=O)Cc3ccc(-n4cnnn4)cc3)CC1)c2Br` [Example 59, 4-Bromo-5-[2-(1-{[4-(1H-tetrazol-1-yl)phenyl]acetyl}piperidin-4-yl)ethyl]-2-benzofuran-1(3H)-one] had an IC50 of no more than 200 nM.
`N#Cc1ccc(CC(=O)N2CCC(CCc3ccc4c(c3)COC4=O)CC2)cc1Br` [Example 64, 2-Bromo-4-[2-oxo-2-[4-[2-(1-oxo-3H-isobenzofuran-5-yl)ethyl]-1-piperidyl]ethyl]benzonitrile] registered an IC50 of no more than 500 nM.
Consider `O=C1OCCc2cc(CCC3CCN(C(=O)Cc4ccc(-n5cnnn5)cc4)CC3)ccc21` [Example 65, 6-[2-(1-{[4-(1H-tetrazol-1-yl)phenyl]acetyl}piperidin-4-yl)ethyl]-3,4-dihydro-1H-isochromen-1-one], for which the IC50 is no more than 200 nM.
The compound `O=C1OCCc2cc(CCC3CCN(C(=O)C4CCc5cc(-n6cnnn6)ccc54)CC3)ccc21` (centres unmarked) [Example 66] showed a half-inhibitory concentration (IC50) of no more than 200 nM.
